Converted amounts (≈) assume the structure as drawn.
Assays:
[1] = tested on: M. tuberculosis R-18 (Kanamycin and rifanpicin resistant strain); test: MIC, two-fold dilution, Dubos Tween albumin liquid medium; type: cell-based; settings: Mycobacterium tuberculosis, 336 h, read-out: minimal inhibitory concentration (MIC)
[2] = tested on: M. tuberculosis R-15 (Rifanpicin resistant strain); test: as above; type: cell-based; settings: Mycobacterium tuberculosis, 336 h, read-out: minimal inhibitory concentration (MIC)

Compound	MIC [1]	MIC [2]
CO[C@H]1/C=C/O[C@@]2(C)Oc3c(C)c(O)c4c(O)c(c(/C=N/N5CCN(C)CC5)c(O)c4c3C2=O)NC(=O)/C(C)=C\C=C\[C@H](C)[C@H](O)[C@@H](C)[C@@H](O)[C@@H](C)[C@H](OC(C)=O)[C@@H]1C [RFP, rifampicin]	> 25 µg/mL	> 25 µg/mL
NC[C@H]1O[C@H](O[C@H]2[C@H](O)[C@@H](O[C@H]3O[C@H](CO)[C@@H](O)[C@H](N)[C@H]3O)[C@H](N)C[C@@H]2N)[C@H](O)[C@@H](O)[C@@H]1O [KM, kanamycin]	> 25 µg/mL	< 0.001 µg/mL
CC(C)c1c(O)cc(C(NC(=N)N)C(=O)NCC(=O)O)cc1O (stereo not drawn) [DO-248-A, N-(α-guanidino-3,5-dihydroxy-4-isopropylphenylacetyl)glycine]	0.025 µg/mL (≈ 0.0771 µM)	0.1 µg/mL (≈ 0.308 µM)

— patent US4647693A, “Antibiotics DO-248-A and B and process for preparing the same” (Shionogi & Co., Ltd., priority 1984, dated 1987)
